Results published in DBAASP.
Values after ≈ are worked out from the molar mass of the structure shown. Each block holds one compound with its values, some of them ahead of it.

Experiments:
Test in all cases: ≥ marks a high value that may be exact or a test limit, other limits are often not marked, values filed in µg/mL are converted to µM
[1] = test system: Staphylococcus aureus ATCC 6538
[2] = test system: Pseudomonas aeruginosa ATCC 9027
[3] = test system: Salmonella typhimurium KCTC 1926
[4] = test system: Escherichia coli KCTC 1682
[5] = test system: Staphylococcus aureus KCTC 1621
[6] = test system: Staphylococcus epidermidis KCTC 1917
[7] = test system: Pseudomonas aeruginosa KCTC 1637
[8] = test system: Bacillus subtilis KCTC 3068
Staphylococcus aureus = test system: Staphylococcus aureus
Candida albicans = test system: Candida albicans
Escherichia coli = test system: Escherichia coli

Structure (SMILES): CC(C)C[C@H](NC(=O)[C@H](CC(C)C)NC(=O)[C@H](CCCCN)NC(=O)[C@H](CCCCN)NC(=O)[C@H](C)NC(=O)[C@H](CC(C)C)NC(=O)[C@H](CCCCN)NC(=O)[C@H](C)NC(=O)[C@@H](N)Cc1ccccc1)C(N)=O [FAKLAKKLL]
MIC [1]: 194 µM (≈ 200 µg/mL)
MIC [2]: 97 µM (≈ 99.9 µg/mL)

Structure (SMILES): CC(C)C[C@H](NC(=O)[C@H](C)NC(=O)[C@H](Cc1ccccc1)NC(=O)[C@H](CCCCN)NC(=O)[C@H](CCCCN)NC(=O)[C@H](CC(C)C)NC(=O)[C@H](C)NC(=O)[C@H](CCCCN)NC(=O)[C@H](C)NC(=O)[C@H](CC(C)C)NC(=O)[C@H](CC(C)C)NC(=O)[C@H](CCCCN)NC(=O)[C@H](C)NC(=O)[C@@H](N)Cc1ccccc1)C(N)=O [FAKLLAKALKKFAL]
MIC [1]: 32 µM (≈ 50 µg/mL)
MIC [2]: 16 µM (≈ 25 µg/mL)

Structure (SMILES): CC(C)C[C@H](NC(=O)[C@H](CCCCN)NC(=O)[C@H](CC(C)C)NC(=O)[C@H](CCCCN)NC(=O)[C@H](C)NC(=O)[C@H](CC(C)C)NC(=O)[C@H](CCCCN)NC(=O)[C@H](C)NC(=O)[C@H](CC(C)C)NC(=O)[C@H](CC(C)C)NC(=O)[C@H](CCCCN)NC(=O)[C@H](C)NC(=O)[C@@H](N)Cc1ccccc1)C(N)=O [FAKLLAKLAKLKL]
MIC [1]: 3.43 µM (≈ 5 µg/mL)
MIC [2]: 34.3 µM (≈ 50 µg/mL)

The remaining lines, values ahead:

MIC [1]: 3.13 µM (≈ 5 µg/mL)
MIC [2]: > 125 µM
Structure (SMILES): CC(C)C[C@H](NC(=O)[C@H](C)NC(=O)[C@H](CCCCN)NC(=O)[C@H](CC(C)C)NC(=O)[C@H](C)NC(=O)[C@H](CCCCN)NC(=O)[C@H](CC(C)C)NC(=O)[C@H](CC(C)C)NC(=O)[C@H](C)NC(=O)[C@H](CCCCN)NC(=O)[C@H](CC(C)C)NC(=O)[C@H](C)NC(=O)[C@H](CCCCN)NC(=O)[C@H](C)NC(=O)[C@@H](N)Cc1ccccc1)C(N)=O [FAKALKALLKALKAL]

MIC [3]: 4 µM (≈ 6.48 µg/mL)
MIC [4]: 4 µM (≈ 6.48 µg/mL)
MIC [5]: 16 µM (≈ 25.9 µg/mL)
MIC [6]: 8 µM (≈ 13 µg/mL)
MIC [7]: 16 µM (≈ 25.9 µg/mL)
MIC [8]: 8 µM (≈ 13 µg/mL)
Structure (SMILES): CC(C)C[C@H](NC(=O)[C@H](C)NC(=O)[C@H](Cc1c[nH]c2ccccc12)NC(=O)[C@H](CCCCN)NC(=O)[C@H](CC(N)=O)NC(=O)[C@H](Cc1c[nH]c2ccccc12)NC(=O)[C@H](CCCCN)NC(=O)[C@H](CCCCN)NC(=O)[C@H](CCCN=C(N)N)NC(=O)[C@@H](N)Cc1ccccc1)C(=O)N[C@@H](CO)C(=O)N[C@@H](CCCN=C(N)N)C(N)=O [FRKKWNKWALSR]

MIC [3]: ≥ 64 µM
MIC [4]: ≥ 64 µM
MIC [5]: ≥ 64 µM
MIC [6]: ≥ 64 µM
MIC [7]: ≥ 32 µM
Structure (SMILES): CC[C@H](C)[C@H](N)C(=O)N[C@@H](CC(C)C)C(=O)NCC(=O)N[C@@H](CCCCN)C(=O)N[C@H](C(=O)N[C@@H](C)C(=O)N[C@@H](CCC(=O)O)C(=O)NCC(=O)N[C@H](C(=O)N[C@@H](CCCCN)C(=O)N[C@@H](CO)C(=O)N[C@@H](CC(C)C)C(=O)N[C@@H](Cc1ccccc1)C(N)=O)[C@@H](C)CC)[C@@H](C)CC [ILGKIAEGIKSLF]

MIC (Staphylococcus aureus): > 200 µM
MIC (Candida albicans): > 200 µM
MIC (Escherichia coli): 200 µM (≈ 573 µg/mL)
Structure (SMILES): CC[C@H](C)[C@H](NC(=O)[C@H](CCCCN)NC(=O)[C@H](CS)NC(=O)[C@H](C)NC(=O)[C@@H](NC(=O)[C@H](Cc1ccccc1)NC(=O)[C@H](CCCCN)NC(=O)[C@H](CC(C)C)NC(=O)[C@H](CCCCN)NC(=O)[C@@H](NC(=O)[C@H](CCCCN)NC(=O)[C@H](CCCCN)NC(=O)[C@H](CC(C)C)NC(=O)[C@H](CC(N)=O)NC(=O)[C@H](CCCCN)NC(=O)[C@H](CC(C)C)NC(=O)[C@@H](NC(=O)[C@H](CO)NC(=O)[C@H](CC(C)C)NC(=O)[C@H](CCSC)NC(=O)[C@@H](N)CO)C(C)C)C(C)C)C(C)C)C(=O)N[C@@H](CC(N)=O)C(=O)N[C@@H](CCCCN)C(=O)N[C@@H](CCC(N)=O)C(=O)N[C@@H](CS)C(=O)O [SMLSVLKNLKKVKLKFVACKINKQC]
